Test results: patent US7811771B2, “Method for the functional determination of mannan-binding-lectin associated serine proteases (MASPs) and complexes thereof” (Nederlandse Organisatie voor …, priority 2004, dated 2010)

How the values were obtained:
[1] = test system: MBL-MASP complexes; test: Determination of MBL-MASP complexes in serum with pro-urokinase substrates; format: biochemical, human; conditions: serum diluted 10-320 fold, mannan coated plate
Description: A mannan-coated microtiter plate was used to bind and immobilize MBL-MASP complexes from heterozygous MBL-deficient serum (A/B genotype), homozygous MBL-deficient serum (B/B genotype) and normal serum (A/A genotype) in various dilutions. After washing, wild-type pro-urokinase or substrate 2 and chromogenic peptide pyro-Glu-Gly-Arg-pNA were added. The absorbance change at 405 nm was followed in time. The slopes of A405 versus time-squared graphs were taken as a measure of activity.
Based on the results of example 2 an assay for MBL-MASP complexes in serum was developed. Three different sera were used, serum […] MBL deficiency, serum (B/B) with an homozygous MBL deficiency and a normal serum (A/A). A microtiter plate was coated with mannan, washed and blocked as described in example 2.
Serum samples were diluted 10-320 fold in GVB++buffer (see example 2) and 100 μl of these dilutions were pipetted into wells of the coated microtiter plate. […]
To all wells 100 μl of detection buffer, 10 μl of either wild-type pro-urokinase or pro-urokinase derivative 2 at 7.6 μg/ml and 10 μl of pyro-Glu-Gly-Arg-pNA at 6 mM were added (see example 2). The plate was shaken and A^405 was followed in time with a microtiter plate reader. The slopes of the graphs of A^405 versus time squared were calculated and used as a measure of activity.

[2] = molecular target: T1, MASP-2 (Homo sapiens, UniProt O00187); test: Activity of recombinant MASP-2 on novel substrates; format: biochemical; design: Recombinant MASP-2 (active form) at 600 μg/ml was serially diluted; conditions: serially diluted recombinant MASP-2, 37° C., 2 h, A405
Description: Various dilutions of purified recombinant MASP-2 were tested for their response with wild-type pro-urokinase based detection and substrate 2 (table 1) based detection. MASP-2 was diluted in buffer to which wt pro-urokinase or pro-urokinase derivative 2 was added followed by pyro-Glu-Gly-Arg-pNA. The plate was incubated for 2h and A^405 was measured (see example 5 for details).
The activity of purified recombinant MASP-2 on wt pro-urokinase and substrate 2 was investigated. Recombinant MASP-2 (active form) at 600 μg/ml was serially diluted in 50 mM Tris HCl pH7.6, 1.5 mM NaCl, 0.5 mM CaCl2, 1 μM ZnCl2, 0.01% (v/v) BRIJ35™. To wells of a microtiter plate 100 μl of MASP-2 dilution, 10 μof wt pro-urokinase at approximately 50 μg/ml) or 10 μl substrate 2 (at approximately 75 μg/ml) were added, followed by 10 μl of peptide substrate pyro Glu-Gly-Arg-pNA (at 6 mM). The plate was incubated at 37° C. and absorbance change at 405 nm was followed in time for 2 h.
Target sequence in this assay (O00187 16-444 limits assumed): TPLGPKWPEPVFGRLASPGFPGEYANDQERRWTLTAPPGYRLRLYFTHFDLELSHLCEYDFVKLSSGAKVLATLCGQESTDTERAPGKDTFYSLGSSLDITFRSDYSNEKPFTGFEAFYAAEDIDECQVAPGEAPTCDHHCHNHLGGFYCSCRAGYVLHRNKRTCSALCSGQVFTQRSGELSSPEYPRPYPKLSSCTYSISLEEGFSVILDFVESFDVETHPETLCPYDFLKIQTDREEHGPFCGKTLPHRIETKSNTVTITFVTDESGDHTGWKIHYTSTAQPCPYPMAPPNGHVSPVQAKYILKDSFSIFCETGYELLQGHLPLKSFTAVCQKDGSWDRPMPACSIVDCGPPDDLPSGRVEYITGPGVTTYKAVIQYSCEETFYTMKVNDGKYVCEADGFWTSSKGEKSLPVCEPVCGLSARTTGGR
Target sequence in this assay (O00187 445-686 limits assumed): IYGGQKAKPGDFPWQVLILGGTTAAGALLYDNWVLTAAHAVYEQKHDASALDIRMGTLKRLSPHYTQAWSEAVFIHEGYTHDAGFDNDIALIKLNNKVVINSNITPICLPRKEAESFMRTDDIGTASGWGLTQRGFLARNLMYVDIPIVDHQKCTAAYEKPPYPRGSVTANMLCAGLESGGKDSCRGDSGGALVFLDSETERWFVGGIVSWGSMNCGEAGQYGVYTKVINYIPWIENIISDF

[3] = test system: MBL-MASP complex; test: Effect of inhibitor on serum MASP activity (captured MBL-MASP complex, pro-urokinase detection); format: biochemical; conditions: 0-1 μM BMpg vs DMSO control; human serum captured on mannan coated plate; wild-type pro-urokinase and pyro-Glu-Gly-Arg-pNA; 37° C., 2 h
Description: MBL-MASP complexes were captured on a mannan coated plate as described in example 4. After capture, buffer, pro-urokinase and peptide substrate and boroMpg (0-1 μM final concentration) in DMSO, or an equivalent amount of pure DMSO (control) were added and activity was measured. All details were as described in example 4. Activity was expressed as ΔA^405/h^2×1000.
A mannan coated plate was used to capture MBL-MASP complex from diluted human serum. After washing, 100 μl buffer containing 0-1 μM Z-D-Phe-Pro-methoxypropylboroglycine-pinanediolester (BMpg or boroMpg) or buffer containing an identical volume of DMSO (solvent of boroMpg), 15 μl (50 μg/ml) wild-type pro-urokinase and 10 μl (6 mM) pyro-Glu-Gly-Arg-pNA were added. The plate was incubated at 37° C. and colour formation was followed for 2 h with a plate reader at 405 nm. Activities were expressed as ΔA/h^2×1000. All details are as described in Example 4. The results summarized in FIG. 9 show no effect of BMpg on activity of the captured MBL-MASP complex.

[4] = molecular target: T2, MASP-1 (Homo sapiens, UniProt P48740); conditions: known from Presanis et al. Mol. Immunol. 2003; cited from earlier work
T2 sequence (P48740 20-699): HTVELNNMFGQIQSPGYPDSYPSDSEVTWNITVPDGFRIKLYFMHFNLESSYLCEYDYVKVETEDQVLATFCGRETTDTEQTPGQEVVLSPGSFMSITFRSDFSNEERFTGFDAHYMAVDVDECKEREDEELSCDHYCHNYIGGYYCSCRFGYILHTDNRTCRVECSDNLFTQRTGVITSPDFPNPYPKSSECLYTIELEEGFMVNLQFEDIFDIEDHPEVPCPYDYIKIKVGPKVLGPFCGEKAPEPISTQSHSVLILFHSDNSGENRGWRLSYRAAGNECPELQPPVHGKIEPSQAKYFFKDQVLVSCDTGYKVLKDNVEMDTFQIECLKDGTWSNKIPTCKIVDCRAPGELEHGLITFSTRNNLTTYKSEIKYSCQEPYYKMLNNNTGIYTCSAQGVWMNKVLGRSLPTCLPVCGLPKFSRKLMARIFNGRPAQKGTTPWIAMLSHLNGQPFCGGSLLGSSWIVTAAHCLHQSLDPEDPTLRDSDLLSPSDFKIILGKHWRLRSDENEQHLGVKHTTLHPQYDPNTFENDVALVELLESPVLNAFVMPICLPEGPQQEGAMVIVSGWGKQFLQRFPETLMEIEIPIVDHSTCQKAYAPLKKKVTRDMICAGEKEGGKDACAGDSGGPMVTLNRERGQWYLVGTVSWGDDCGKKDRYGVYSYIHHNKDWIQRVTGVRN

[5] = molecular target: T1, MASP-2; conditions: known from Presanis et al. Mol. Immunol. 2003; cited from earlier work
Target sequence in this assay (O00187 16-686): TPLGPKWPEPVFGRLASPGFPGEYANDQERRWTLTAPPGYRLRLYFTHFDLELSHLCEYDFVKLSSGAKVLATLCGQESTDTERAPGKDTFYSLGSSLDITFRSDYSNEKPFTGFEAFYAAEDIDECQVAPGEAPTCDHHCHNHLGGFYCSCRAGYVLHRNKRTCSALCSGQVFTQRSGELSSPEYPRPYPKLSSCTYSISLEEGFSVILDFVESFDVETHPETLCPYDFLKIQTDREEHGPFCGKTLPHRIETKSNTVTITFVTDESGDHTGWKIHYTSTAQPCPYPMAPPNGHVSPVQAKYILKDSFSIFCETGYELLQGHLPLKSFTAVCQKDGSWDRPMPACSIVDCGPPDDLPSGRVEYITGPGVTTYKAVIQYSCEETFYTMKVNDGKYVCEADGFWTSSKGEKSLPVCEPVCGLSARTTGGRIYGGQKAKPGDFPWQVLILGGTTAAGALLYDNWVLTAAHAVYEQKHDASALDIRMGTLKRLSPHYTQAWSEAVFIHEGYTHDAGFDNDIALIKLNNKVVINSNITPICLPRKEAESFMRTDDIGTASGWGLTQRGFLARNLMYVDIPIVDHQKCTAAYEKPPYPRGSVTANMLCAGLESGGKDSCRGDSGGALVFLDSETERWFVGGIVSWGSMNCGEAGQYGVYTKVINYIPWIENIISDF

Compound: substrate 2: pro-urokinase mutant with activation site Asn-Leu-Thr-Arg-Ile-Val-Gly-Gly (SEQ ID NO:4) (NLTRIVGG; activation site)
- activity in normal (A/A) serum (slope of A405 versus time squared) [1]: dose dependent activity
- detection of MASP-2 activity [2]: can be detected

Compound: COCCC[C@@H](NC(=O)[C@@H]1CCCN1C(=O)[C@@H](Cc1ccccc1)NC(=O)OCc1ccccc1)B1OC2C[C@@H]3C[C@@H](C3(C)C)[C@]2(C)O1 (stereo partly drawn) [BMpg, Z-D-Phe-Pro-methoxypropylboroglycine-pinanediolester]
- effect on activity of the captured MBL-MASP complex (ΔA/h^2×1000) [3]: no effect
- inhibition of MASP-1 [4]: inhibit MASP-1
- inhibition of MASP-2 [5]: not MASP-2
